Converted amounts (≈) assume the structure as drawn. Read-outs that look alike come from different tables or passages of the source.

What all share (type): cell-based
The subject of assay [1] is S. aureus NRS-119 (MRSA, linezolid- and quinolone-resistant). Nature of the assay: MIC, broth microdilution (CLSI), CAMHB. The settings on record: Staphylococcus aureus. As for the experimental part: (§1) MIC-testing was done immediately after preparation of the dilutions. All tests were done in duplicate and repeated once on a separate occasion.
(§2) 1 mL of the bacterial suspension was transferred into a tube containing 10 mL CAMHB and was vortexed thoroughly. (S. pneumoniae 1 mL in 10 mL CAMHB+5% lysed horse blood). Columns 1-15 of the 96-well plate were inoculated with 5 μL of this suspension (1-15=antibacterial solution, 16=sterile medium without test item).
(§3) Turbidity was read visually with a mirror.
In general terms: Dilution methods test growth across graded concentrations, often in twofold steps.

The test system of assay [2] is S. aureus ATCC 33593 (MRSA). Kind of assay: MIC, broth microdilution (CLSI), CAMHB. The settings on record: Staphylococcus aureus; monosubstance; Sa ATCC33593; read-out: MIC. The procedure: as §1, §2, §3
Assay [3] relates to S. aureus Visa Mu 50 (MRSA, vancomycin intermediate susceptible). Nature of the assay: MIC, broth microdilution (CLSI), CAMHB. The note with it: Staphylococcus aureus; monosubstance; Sa VisaMu50; read-out: MIC. As for the experimental part:
as §1, §2, §3

In another assay the test system is S. aureus ATCC 29213. Kind of assay: MIC, broth microdilution (CLSI), CAMHB. The settings on record: Staphylococcus aureus; monosubstance; Sa ATCC29213; read-out: MIC. As for the experimental part:
as §1, §2, §3

The next assay relates to E. faecium DSMZ 2146. Kind of assay: MIC, broth microdilution (CLSI), CAMHB. The note with it: Enterococcus faecium. The procedure: as §1, §2, §3
The subject of the next assay is S. pneumoniae ATCC 33400. Kind of assay: MIC, broth microdilution (CLSI), CAMHB. The note with it: Streptococcus pneumoniae; monosubstance; Spn ATCC33400; read-out: MIC. The procedure: as §1, §2, §3
In assay [4] the test system is S. pneumoniae BAY 19397 (penicillin-, macrolide-, quinolone-resistant). Kind of assay: MIC, broth microdilution (CLSI), CAMHB. The note with it: Streptococcus pneumoniae, monosubstance; Spn 19397; read-out: MIC. The procedure:
as §1, §2, §3

The test system of assay [5] is E. faecium UW 3695 (linezolid and quinolone-resistant). Kind of assay: MIC, broth microdilution (CLSI), CAMHB. The settings on record: Enterococcus faecium; monosubstance; Efc UW3695; read-out: MIC. The procedure: as §1, §2, §3
The next assay relates to E. faecalis ATCC 29212. Kind of assay: MIC, broth microdilution (CLSI), CAMHB. The note with it: Enterococcus faecalis; monosubstance; Ef ATCC29212; read-out: MIC. The procedure:
as §1, §2, §3

A further assay concerns E. faecalis V583 (VanB). Kind of assay: MIC, broth microdilution (CLSI), CAMHB. The note with it: Enterococcus faecalis; monosubstance; Ef V583; read-out: MIC. As for the experimental part: as §1, §2, §3
The test system of assay [6] is S. aureus DSM 11823, clone 16 (MSSA, quinolone-resistant). Kind of assay: microbe, parasite or virus in culture. The settings on record: Staphylococcus aureus. As for the experimental part:
as §1, §2, §3

The test system of assay [7] is Gram-negative test strains (Enterobacteriaceae, non-fermenters). Kind of assay: MIC testing, statements on the Gram-negative strain panel.
Description: as §1

Assay [8] relates to K. pneumoniae NRZ-00002 (OXA-48). Nature of the assay: MIC, broth microdilution (CLSI), CAMHB. The settings on record: Klebsiella pneumoniae; monosubstance; Kp NRZ00002; read-out: MIC. As for the experimental part:
as §1, §2, §3

Assay [9] has as its system K. pneumoniae NRZ-00535 (VIM-1). Kind of assay: MIC, broth microdilution (CLSI), CAMHB. The note with it: Klebsiella pneumoniae. As for the experimental part: as §1, §2, §3
The subject of assay [10] is E. cloacae NRZ-00239 (VIM-1). Kind of assay: MIC, broth microdilution (CLSI), CAMHB. The note with it: Enterobacter cloacae; monosubstance; Ecl NRZ00239; read-out: MIC. The procedure: as §1, §2, §3
In a further assay the test system is E. cloacae ATCC 13047. Nature of the assay: MIC, broth microdilution (CLSI), CAMHB. The note with it: Enterobacter cloacae; monosubstance; Ecl ATCC13047; read-out: MIC. As for the experimental part: as §1, §2, §3
The next assay relates to P. aeruginosa ATCC 10145. Nature of the assay: MIC, broth microdilution (CLSI), CAMHB. The note with it: Pseudomonas aeruginosa; monosubstance; Pa ATCC10145; read-out: MIC. As for the experimental part:
as §1, §2, §3

The test system of assay [11] is E. coli NRZ-00401 (metallo β-lactamase VIM-1). Nature of the assay: MIC, broth microdilution (CLSI), CAMHB. The settings on record: Escherichia coli; monosubstance; Ec NRZ00401; read-out: MIC. As for the experimental part: as §1, §2, §3
Assay [12] concerns P. aeruginosa NRZ-00425 (VIM-1). Nature of the assay: MIC, broth microdilution (CLSI), CAMHB. The note with it: Pseudomonas aeruginosa. As for the experimental part: as §1, §2, §3
Assay [13] deals with K. pneumoniae NRZ-00103 (KPC-2). Nature of the assay: MIC, broth microdilution (CLSI), CAMHB. The settings on record: Klebsiella pneumoniae. As for the experimental part:
as §1, §2, §3

For a further assay, the system named is K. pneumoniae ATCC 13883. Kind of assay: MIC, broth microdilution (CLSI), CAMHB. The note with it: Klebsiella pneumoniae; monosubstance; Kp ATCC13883; read-out: MIC. The procedure:
as §1, §2, §3

The test system of a further assay is P. mirabilis ATCC 9240. Nature of the assay: MIC, broth microdilution (CLSI), CAMHB. The note with it: Proteus mirabilis; monosubstance; Pm ATCC9240; read-out: MIC. As for the experimental part:
as §1, §2, §3

Assay [14] has as its system E. coli NRZ-00302 (metallo β-lactamase NDM-1). Nature of the assay: MIC, broth microdilution (CLSI), CAMHB. The settings on record: Escherichia coli. As for the experimental part:
as §1, §2, §3

Assay [15] deals with P. mirabilis NRZ-00185 (AmpC, type CMY-2). Nature of the assay: MIC, broth microdilution (CLSI), CAMHB. The settings on record: Proteus mirabilis. As for the experimental part: as §1, §2, §3
The next assay has as its system E. coli ATCC 25922. Nature of the assay: MIC, broth microdilution (CLSI), CAMHB. The note with it: Escherichia coli; monosubstance; Ec ATCC25922; read-out: MIC. The procedure: as §1, §2, §3
Assay [16] has as its system E. coli GNS-2601 (ESBL CTX-M-15). Nature of the assay: MIC, broth microdilution (CLSI), CAMHB. The note with it: Escherichia coli. As for the experimental part:
as §1, §2, §3

Turning to `CC1(C)S[C@@H]2[C@H](NC(=O)[C@H](N)c3ccccc3)C(=O)N2[C@H]1C(=O)O` [ampicillin], the MIC stood at 128 µg/mL (≈ 366 µM) in assay [1]; 64 µg/mL (≈ 183 µM) in [2]; 256 µg/mL (≈ 733 µM) in [3]; 0.5 µg/mL (≈ 1.43 µM) in the assay with S. aureus ATCC 29213; 128 µg/mL (≈ 366 µM) in the assay with E. faecium DSMZ 2146 (DSMZ2146); 0.0075 µg/mL (≈ 0.0215 µM) in the assay with S. pneumoniae ATCC 33400. Besides, the MIC in assay [4] was 1 µg/mL (≈ 2.86 µM); in [5], 32 µg/mL (≈ 91.6 µM); in the assay on E. faecalis ATCC 29212 it was 1 µg/mL (≈ 2.86 µM); with E. faecalis V583 (VanB) it was 0.5 µg/mL (≈ 1.43 µM); in assay [6] it was 0.007 µg/mL (≈ 0.02 µM).
For `CC(C)(O/N=C(\C(=O)N[C@@H]1C(=O)N2C(C(=O)[O-])=C(C[n+]3ccccc3)CS[C@H]12)c1csc(N)n1)C(=O)O` [ceftazidime], the MIC was below 0.5 µg/mL in assay [7] (E. coli, K. pneumoniae, and P. mirabilis wild type strains, read-out: MIC (inhibitory concentration)); above 2 µg/mL in [7] (remainder / remaining / all other test strains, as worded for each agent, read-out: MIC); 64 µg/mL (≈ 117 µM) in [8]; above 256 µg/mL in assay [9]; 4 µg/mL (≈ 7.32 µM) in assay [10]; 2 µg/mL (≈ 3.66 µM) in the assay on E. cloacae ATCC 13047. Besides, the MIC in the assay with P. aeruginosa ATCC 10145 is 2 µg/mL (≈ 3.66 µM); in assay [11], 32 µg/mL (≈ 58.5 µM); in assay [12] (monosubstance, Pa NRZ00425, read-out: MIC), 32 µg/mL (≈ 58.5 µM); in [13] it was above 256 µg/mL; in the assay on K. pneumoniae ATCC 13883, 0.25 µg/mL (≈ 0.457 µM); in the assay on P. mirabilis ATCC 9240, 0.5 µg/mL (≈ 0.915 µM). Also, the MIC in [14] was above 256 µg/mL; in [15] it was 128 µg/mL (≈ 234 µM); with E. coli ATCC 25922, 0.03 µg/mL (≈ 0.0549 µM); in [16], 128 µg/mL (≈ 234 µM).
Consider `CO/N=C(\C(=O)N[C@@H]1C(=O)N2C(C(=O)O)=C(CSc3nc(=O)c(=O)[nH]n3C)CS[C@H]12)c1csc(N)n1` [ceftriaxone], for which the MIC in assay [1] (monosubstance, Sa NRS119, read-out: MIC) was above 256 µg/mL; in assay [2], above 256 µg/mL; in assay [3], 16 µg/mL (≈ 28.9 µM); with S. aureus ATCC 29213, 4 µg/mL (≈ 7.21 µM); with E. faecium DSMZ 2146 (monosubstance, Efc DSMZ2146, read-out: MIC), 0.5 µg/mL (≈ 0.902 µM); with S. pneumoniae ATCC 33400, 0.0075 µg/mL (≈ 0.0135 µM). The MIC in assay [4] was 4 µg/mL (≈ 7.21 µM); in [5], 32 µg/mL (≈ 57.7 µM); in the assay with E. faecalis ATCC 29212, 0.5 µg/mL (≈ 0.902 µM); in the assay on E. faecalis V583 (VanB), 0.5 µg/mL (≈ 0.902 µM); in assay [6], 4 µg/mL (≈ 7.21 µM).
Take `C[C@@H](O)[C@H]1C(=O)N2C(C(=O)O)=C(SCCN=CN)C[C@H]12` [imipenem]: the MIC in [7] (all the test strains except P. aeruginosa NRZ-00185 and K. pneumoniae NRZ-00103, read-out: MIC (inhibitory concentration)) was below 8 µg/mL; in assay [8] it was 2 µg/mL (≈ 6.68 µM); in assay [9] (monosubstance, Kp NRZ00535, read-out: MIC), 8 µg/mL (≈ 26.7 µM); in assay [10] it was 0.25 µg/mL (≈ 0.835 µM); with E. cloacae ATCC 13047 it was 0.25 µg/mL (≈ 0.835 µM); with P. aeruginosa ATCC 10145 it was 0.5 µg/mL (≈ 1.67 µM). Also, the MIC in assay [11] worked out at 4 µg/mL (≈ 13.4 µM); in assay [12], 128 µg/mL (≈ 428 µM); in assay [13] (monosubstance, Kp NRZ00103, read-out: MIC), 32 µg/mL (≈ 107 µM); in the assay with K. pneumoniae ATCC 13883, 0.25 µg/mL (≈ 0.835 µM); in the assay with P. mirabilis ATCC 9240, 1 µg/mL (≈ 3.34 µM); in assay [14] (monosubstance, Ec NRZ00302, read-out: MIC), 4 µg/mL (≈ 13.4 µM). Moreover, the MIC in assay [15] (monosubstance, Pm NRZ00185, read-out: MIC) is 1 µg/mL (≈ 3.34 µM); in the assay with E. coli ATCC 25922, 0.03 µg/mL (≈ 0.1 µM); in [16] (monosubstance, Ec GNS2601, read-out: MIC) it was 0.03 µg/mL (≈ 0.1 µM).
